Strand notation (5' to 3'): a small letter for the sugar, then the base; units joined by * are phosphorothioate-linked, units joined directly phosphodiester-linked; [ ] holds rarer units or linkages, { } end groups; capitals alone tell only the bases. k = constrained ethyl (cEt); [5mC] = 5-methylcytosine; d = 2'-deoxy (DNA)
Tests used:
[1] = system: human SMAD7 mRNA; test: Antisense inhibition of human SMAD7 mRNA expression in Hep3B cells by 3-10-3 cEt gapmers, 10,000 nM, electroporation (Example 2); type: cell-based; details: approximately 24 hours
Outline: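 Percent inhibition of SMAD7 mRNA, relative to untreated cells, after ~24 h exposure of electroporated Hep3B cells to 10,000 nM cEt gapmer; levels by qRT-PCR, corrected for total RNA.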

[2] = system: human SMAD7 mRNA; test: Dose-dependent inhibition of human SMAD7 mRNA expression in Hep3B cells (Example 3, Study 1 and 2); type: cell-based; details: electroporation; for % inhibition of SMAD7 mRNA expression: approximately 16 hours; for IC50: Study 2 (740-20000 nM)
Outline: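 Hep3B cells, 20,000 per well, electroporated with antisense oligonucleotide at 0.31, 1.25, 5.00 or 20.00 μM (first series) or 0.74, 2.22, 6.67 or 20.00 μM (second series). After ~16 h, SMAD7 mRNA measured by RT-qPCR (RTS5062), normalised to RIBOGREEN total RNA. Percent inhibition vs untreated cells; IC50 derived.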

[3] = 740 nM, Study 2, relative to untreated control cells
[4] = Hep3B cells, electroporation with 10,000 nM antisense oligonucleotide, RTS5062, percent inhibition of SMAD7 mRNA relative to untreated control cells
[5] = Hep3B cells, electroporation, 10,000 nM antisense oligonucleotide, RTS5062, relative to untreated control cells
[6] = Hep3B cells, electroporation with 10,000 nM antisense oligonucleotide, SMAD7 mRNA by RT-PCR (RTS5062), relative to untreated control cells

Substance | % Inhibition ([1]; SMAD7 mRNA, Hep3B cells, electroporation with 10,000 nM antisense oligonucleotide, primer probe set RTS5062, relative to untreated control cells) | % inhibition of SMAD7 mRNA expression [2, 3] | % inhibition of SMAD7 mRNA expression ([2]; 2220 nM, Study 2) | % inhibition of SMAD7 mRNA expression ([2]; 6670.0 nM, Study 2) | % inhibition of SMAD7 mRNA expression ([2]; 20000.0 nM, Study 2) | IC50 [2] | % Inhibition [1, 4] | % inhibition of SMAD7 mRNA expression [1, 5] | % inhibition of SMAD7 mRNA expression ([1]; Hep3B cells, electroporation with 10,000 nM antisense oligonucleotide, primer probe set RTS5062, relative to untreated control cells) | % Inhibition [1, 6] | % Inhibition ([1]; Hep3B cells, 10,000 nM antisense oligonucleotide, electroporation, RT-PCR primer probe set RTS5062, relative to untreated control cells)
829995 (kT*kG*kG*dA*dG*dG*d[5mC]*dA*dG*dG*dG*d[5mC]*d[5mC]*kG*k[5mC]*kG; antisense) [compound 829995] | 78% | 36% | 74% | 76% | 84% | 8 µM |  |  |  |  | 
799709 (antisense kT*k[5mC]*kA*dA*dA*d[5mC]*dT*dT*dG*dT*dG*dG*dT*kA*kA*kA) [compound 799709] |  | 0% | 27% | 36% | 62% | 7 µM | 60% |  |  |  | 
799534 (kG*kA*kG*dA*dA*dT*dG*dA*dA*dG*dT*d[5mC]*d[5mC]*kA*kG*kA; antisense) [compound 799534] |  | 16% | 60% | 51% | 86% | 1 µM |  | 68% |  |  | 
799543 (kT*k[5mC]*kA*dA*dA*dT*dG*d[5mC]*dA*dT*dG*dA*dG*kT*kT*kA; antisense) [compound 799543] |  | 13% | 26% | 61% | 75% | 5 µM |  | 65% |  |  | 
799787 (k[5mC]*k[5mC]*kA*dA*dA*dG*d[5mC]*dA*dG*dA*dA*dG*dT*kA*kG*kA; antisense) [compound 799787] |  | 0% | 9% | 35% | 41% | 18 µM | 58% |  |  |  | 
799689 (antisense kT*kG*k[5mC]*dT*dA*d[5mC]*dA*dG*dT*dG*dT*d[5mC]*dA*k[5mC]*k[5mC]*kA) [compound 799689] |  | 34% | 49% | 65% | 73% | 5 µM | 63% |  |  |  | 
798662 (kG*k[5mC]*kT*d[5mC]*d[5mC]*dG*dG*d[5mC]*dT*dG*d[5mC]*d[5mC]*d[5mC]*k[5mC]*kA*k[5mC]; antisense) [compound 798662] |  | 0% | 28% | 22% | 25% | > 20 µM |  |  | 62% |  | 
799429 (antisense k[5mC]*kA*k[5mC]*dA*dA*dG*dT*d[5mC]*dA*d[5mC]*dA*dA*d[5mC]*kT*kG*kG) [compound 799429] |  | 24% | 50% | 60% | 63% | 7 µM |  |  |  | 74% | 
830097 (k[5mC]*k[5mC]*kA*dT*d[5mC]*dT*dA*dA*d[5mC]*dA*dA*d[5mC]*dA*kT*k[5mC]*k[5mC]; antisense) [compound 830097] |  | 29% | 60% | 78% | 86% | 1 µM |  |  |  | 68% | 
799921 (antisense k[5mC]*kT*kA*dA*dT*dT*dA*dG*dT*dG*dA*d[5mC]*dT*kG*kT*kG) [compound 799921] |  | 10% | 35% | 55% | 58% | 11 µM |  |  |  | 75% | 
830170 (antisense kG*k[5mC]*kT*d[5mC]*dT*dG*dT*dT*dT*dG*dG*dA*d[5mC]*kA*kA*kG) [compound 830170] |  | 1% | 39% | 54% | 67% | 6 µM |  |  |  | 60% | 
799851 (kA*kA*kG*dT*dG*dT*d[5mC]*d[5mC]*dA*dT*d[5mC]*dA*dA*kG*k[5mC]*kA; antisense) [compound 799851] |  | 15% | 36% | 46% | 57% | 2 µM |  |  |  |  | 70%

From patent US10517889B2, “Modulators of SMAD7 expression” (Ionis Pharmaceuticals, Inc., priority 2017, dated 2019)
